Laboratory results taken from patent US20120245137A1 (Zalicus Pharmaceuticals Ltd., priority 2009, published 2012).

What was measured:
[1] = target: human α1G T-type channels (Homo sapiens, UniProt O43497); test: T-type calcium channel block, whole cell patch clamp, α1G; type: cell-based; conditions: HEK cells stably expressing human α1G; mainly non-inactivated protocol; values above 10,000 nM represented as 10000
How it was run: (§1)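 Cells are stable HEK 293 lines carrying human α1G or α1H channels, patched in whole-cell mode. Resting block comes from the non-inactivated pre-pulse; voltage-dependent block from the inactivated protocol.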

[2] = target: human α1H T-type channels (Homo sapiens, UniProt O95180); test: T-type calcium channel block, whole cell patch clamp, α1H; type: cell-based; conditions: HEK cells stably expressing human α1H; mainly non-inactivated protocol; values above 10,000 nM represented as 10000
How it was run: as §1

Chain of human α1H T-type channels (O95180 whole entry): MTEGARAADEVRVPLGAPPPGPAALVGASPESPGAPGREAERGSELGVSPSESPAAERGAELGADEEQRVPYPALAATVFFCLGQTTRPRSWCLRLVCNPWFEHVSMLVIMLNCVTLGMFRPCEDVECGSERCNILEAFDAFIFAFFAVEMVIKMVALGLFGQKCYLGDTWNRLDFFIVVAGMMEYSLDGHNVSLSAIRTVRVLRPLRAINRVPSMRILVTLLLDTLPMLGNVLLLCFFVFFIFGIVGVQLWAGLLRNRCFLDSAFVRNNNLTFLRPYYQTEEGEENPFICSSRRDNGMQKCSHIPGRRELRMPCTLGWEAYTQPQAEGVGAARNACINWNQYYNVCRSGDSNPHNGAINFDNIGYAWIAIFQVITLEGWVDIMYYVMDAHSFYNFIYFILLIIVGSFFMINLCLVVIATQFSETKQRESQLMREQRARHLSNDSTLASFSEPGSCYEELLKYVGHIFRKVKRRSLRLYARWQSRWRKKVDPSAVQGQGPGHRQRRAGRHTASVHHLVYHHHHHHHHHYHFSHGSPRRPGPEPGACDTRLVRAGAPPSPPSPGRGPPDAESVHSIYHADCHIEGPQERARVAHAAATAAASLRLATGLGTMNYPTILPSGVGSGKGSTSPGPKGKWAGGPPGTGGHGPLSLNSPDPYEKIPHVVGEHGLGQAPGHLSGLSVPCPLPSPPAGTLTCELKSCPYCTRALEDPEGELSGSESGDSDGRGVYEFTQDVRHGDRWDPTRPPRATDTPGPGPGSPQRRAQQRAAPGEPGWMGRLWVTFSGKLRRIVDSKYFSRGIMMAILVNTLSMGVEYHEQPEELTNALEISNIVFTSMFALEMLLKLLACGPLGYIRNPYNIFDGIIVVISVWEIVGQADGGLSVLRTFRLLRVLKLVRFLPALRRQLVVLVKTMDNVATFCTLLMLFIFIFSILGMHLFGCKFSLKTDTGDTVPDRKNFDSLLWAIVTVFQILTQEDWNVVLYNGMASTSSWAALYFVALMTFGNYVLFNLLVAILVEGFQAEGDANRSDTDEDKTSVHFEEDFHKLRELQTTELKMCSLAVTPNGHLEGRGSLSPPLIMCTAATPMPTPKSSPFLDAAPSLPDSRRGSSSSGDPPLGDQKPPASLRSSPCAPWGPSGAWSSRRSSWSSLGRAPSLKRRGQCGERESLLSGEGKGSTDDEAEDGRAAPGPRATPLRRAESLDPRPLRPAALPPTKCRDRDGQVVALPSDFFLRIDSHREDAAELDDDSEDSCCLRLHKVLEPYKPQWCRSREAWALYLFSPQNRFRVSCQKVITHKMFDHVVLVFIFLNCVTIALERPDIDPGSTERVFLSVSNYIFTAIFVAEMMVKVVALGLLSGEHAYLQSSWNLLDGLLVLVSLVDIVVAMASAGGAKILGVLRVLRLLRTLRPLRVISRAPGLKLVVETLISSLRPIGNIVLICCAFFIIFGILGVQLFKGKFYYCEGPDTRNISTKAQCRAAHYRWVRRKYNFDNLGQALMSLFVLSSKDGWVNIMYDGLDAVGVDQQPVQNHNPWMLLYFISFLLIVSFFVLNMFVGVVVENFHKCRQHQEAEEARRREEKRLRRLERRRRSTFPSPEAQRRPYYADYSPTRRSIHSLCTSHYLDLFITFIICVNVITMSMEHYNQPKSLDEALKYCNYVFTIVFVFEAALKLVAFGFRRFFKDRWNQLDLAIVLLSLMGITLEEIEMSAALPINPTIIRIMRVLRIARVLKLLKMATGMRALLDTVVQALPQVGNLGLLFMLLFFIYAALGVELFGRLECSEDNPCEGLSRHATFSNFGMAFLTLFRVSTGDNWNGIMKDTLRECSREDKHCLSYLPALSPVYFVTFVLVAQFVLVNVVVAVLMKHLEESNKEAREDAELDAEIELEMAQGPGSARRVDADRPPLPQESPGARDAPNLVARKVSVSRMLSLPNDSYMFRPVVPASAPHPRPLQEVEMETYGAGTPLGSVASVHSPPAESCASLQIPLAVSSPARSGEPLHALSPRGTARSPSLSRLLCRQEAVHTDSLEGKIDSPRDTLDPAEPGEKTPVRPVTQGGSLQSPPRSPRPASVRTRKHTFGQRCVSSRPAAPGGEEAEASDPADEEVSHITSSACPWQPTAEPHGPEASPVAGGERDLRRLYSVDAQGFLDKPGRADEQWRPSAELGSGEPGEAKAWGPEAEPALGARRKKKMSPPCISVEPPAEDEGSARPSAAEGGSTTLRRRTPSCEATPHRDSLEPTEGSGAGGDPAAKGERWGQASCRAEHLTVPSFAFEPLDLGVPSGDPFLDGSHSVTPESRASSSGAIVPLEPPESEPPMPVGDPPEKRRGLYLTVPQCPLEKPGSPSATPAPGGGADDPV
Chain of human α1G T-type channels (O43497 whole entry): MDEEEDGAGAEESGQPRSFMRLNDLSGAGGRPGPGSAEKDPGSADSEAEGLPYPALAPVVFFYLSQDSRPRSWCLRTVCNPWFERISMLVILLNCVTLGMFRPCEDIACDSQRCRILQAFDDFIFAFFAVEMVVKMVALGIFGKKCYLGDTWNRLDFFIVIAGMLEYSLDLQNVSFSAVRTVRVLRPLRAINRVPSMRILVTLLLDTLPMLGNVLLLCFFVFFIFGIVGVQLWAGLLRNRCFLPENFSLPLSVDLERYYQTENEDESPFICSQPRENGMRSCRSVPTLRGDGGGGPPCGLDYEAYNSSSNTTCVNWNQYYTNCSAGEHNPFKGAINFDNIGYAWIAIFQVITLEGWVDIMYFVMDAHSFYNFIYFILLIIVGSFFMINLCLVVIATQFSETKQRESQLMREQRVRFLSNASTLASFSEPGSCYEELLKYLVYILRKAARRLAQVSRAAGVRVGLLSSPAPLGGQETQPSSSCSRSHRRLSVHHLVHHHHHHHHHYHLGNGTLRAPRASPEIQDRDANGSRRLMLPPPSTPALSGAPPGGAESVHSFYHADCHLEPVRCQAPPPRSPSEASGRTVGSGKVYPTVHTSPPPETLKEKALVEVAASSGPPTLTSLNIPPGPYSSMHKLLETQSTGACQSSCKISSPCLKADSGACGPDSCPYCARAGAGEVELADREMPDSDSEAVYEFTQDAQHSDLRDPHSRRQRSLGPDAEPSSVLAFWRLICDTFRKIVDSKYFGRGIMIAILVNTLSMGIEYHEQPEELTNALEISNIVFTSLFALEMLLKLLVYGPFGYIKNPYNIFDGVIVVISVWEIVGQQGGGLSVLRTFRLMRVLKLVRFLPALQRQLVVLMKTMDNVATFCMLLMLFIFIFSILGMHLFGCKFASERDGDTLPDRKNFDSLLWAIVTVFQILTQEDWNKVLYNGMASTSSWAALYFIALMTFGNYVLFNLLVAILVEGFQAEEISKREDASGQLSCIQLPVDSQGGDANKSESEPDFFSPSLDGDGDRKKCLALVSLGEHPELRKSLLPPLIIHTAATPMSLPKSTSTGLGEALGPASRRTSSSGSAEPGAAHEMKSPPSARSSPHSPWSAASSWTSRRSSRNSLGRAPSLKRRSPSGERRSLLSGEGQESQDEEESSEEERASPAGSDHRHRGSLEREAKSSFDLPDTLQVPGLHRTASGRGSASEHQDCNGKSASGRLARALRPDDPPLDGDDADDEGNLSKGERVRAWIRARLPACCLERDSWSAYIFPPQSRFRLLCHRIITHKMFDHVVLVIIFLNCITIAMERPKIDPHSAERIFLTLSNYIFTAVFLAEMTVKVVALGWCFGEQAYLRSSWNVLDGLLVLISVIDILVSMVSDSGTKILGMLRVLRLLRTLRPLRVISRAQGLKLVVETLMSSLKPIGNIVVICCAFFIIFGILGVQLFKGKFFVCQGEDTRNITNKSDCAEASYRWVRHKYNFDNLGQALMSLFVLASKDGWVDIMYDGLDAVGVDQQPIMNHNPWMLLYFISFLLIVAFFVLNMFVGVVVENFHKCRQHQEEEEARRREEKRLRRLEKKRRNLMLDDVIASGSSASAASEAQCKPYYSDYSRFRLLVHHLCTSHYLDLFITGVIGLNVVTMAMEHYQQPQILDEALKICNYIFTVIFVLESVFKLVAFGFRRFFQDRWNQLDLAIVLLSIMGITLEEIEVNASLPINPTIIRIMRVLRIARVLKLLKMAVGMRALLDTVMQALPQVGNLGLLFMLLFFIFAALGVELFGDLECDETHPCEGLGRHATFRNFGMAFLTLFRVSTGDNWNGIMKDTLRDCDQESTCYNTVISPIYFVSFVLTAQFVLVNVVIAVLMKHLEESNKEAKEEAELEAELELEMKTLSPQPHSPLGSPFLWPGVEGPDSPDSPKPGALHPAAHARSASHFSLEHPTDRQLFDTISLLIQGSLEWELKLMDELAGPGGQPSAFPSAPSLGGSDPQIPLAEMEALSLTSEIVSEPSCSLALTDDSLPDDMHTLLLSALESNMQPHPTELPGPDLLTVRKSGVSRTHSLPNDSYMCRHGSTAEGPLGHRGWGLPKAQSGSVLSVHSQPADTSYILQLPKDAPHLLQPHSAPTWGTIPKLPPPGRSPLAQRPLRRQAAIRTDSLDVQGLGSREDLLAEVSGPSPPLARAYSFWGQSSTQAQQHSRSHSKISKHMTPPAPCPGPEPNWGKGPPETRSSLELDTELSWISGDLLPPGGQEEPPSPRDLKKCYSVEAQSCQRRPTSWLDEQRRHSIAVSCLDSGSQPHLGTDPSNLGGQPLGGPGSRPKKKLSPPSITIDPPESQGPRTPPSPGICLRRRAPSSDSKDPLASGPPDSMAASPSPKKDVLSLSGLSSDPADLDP

`CN(C(=O)CNCCC(C)(C)S(=O)(=O)c1cccc(C(F)(F)F)c1)C(C)(C)C` [Compound 473, N-tert-butyl-N-methyl-2-(3-methyl-3-(3-(trifluoromethyl)phenylsulfonyl)butylamino) acetamide] gave an IC50 [1] of 680 nM and an IC50 [2] of 9280 nM.

For `CC(C)(CNC(=O)c1ccc(C(F)(F)F)cc1S(C)(=O)=O)S(=O)(=O)c1cccc(C(F)(F)F)c1` [Compound 474, N-(2-methyl-2-(3-(trifluoromethyl)phenylsulfonyl)propyl)-2-(methylsulfonyl)-4-(tritluoromethyl)benzamide], the IC50 [1] was 560 nM and the IC50 [2] was > 10000 nM.

`CC(C)(CNC(=O)c1cc(C(F)(F)F)ccn1)S(=O)(=O)c1cccc(C(F)(F)F)c1` [Compound 475, N-(2-methyl-2-(3-(trifluoromethyl)phenylsulfonyl)propyl)-4-(trifluoromethyl)picolinamide] was tested, and the IC50 [1] was 480 nM and the IC50 [2] was 6970 nM.

With `CC(C)(CNC(=O)c1ccc(C(F)(F)F)cn1)S(=O)(=O)c1cccc(C(F)(F)F)c1` [Compound 476, N-(2-methyl-2-(3-(trifluoromethyl)phenylsulfonyl)propyl)-5-(trifluoromethyl)picolinamide] the IC50 [1] was 400 nM and the IC50 [2] was 5620 nM.

`CC(C)(C)C(=O)Nc1ccncc1C(=O)NCC(C)(C)S(=O)(=O)c1cccc(C(F)(F)F)c1` [Compound 477, N-(2-methyl-2-(3-(trifluoromethyl)phenylsulfonyl)propyl)-4-pivalamidonicotinamide] was tested, and the IC50 [1] was 540 nM and the IC50 [2] was > 10000 nM.

`CC(C)(CNC(=O)c1nc2cc(F)ccc2[nH]1)S(=O)(=O)c1cccc(C(F)(F)F)c1` [Compound 478, 5-fluoro-N-(2-methyl-2-(3-(trifluoromethyl)phenylsulfonyl)propyl)-1H-benzo[d]imidazole-2-carboxamide] was tested, and the IC50 [1] was 270 nM and the IC50 [2] was 5340 nM.

Compound `CC(C)(CNC(=O)c1ccc(Cl)c(Cl)c1)S(=O)(=O)c1cccc(C(F)(F)F)c1` [Compound 479, 3,4-dichloro-N-(2-methyl-2-(3-(trifluoromethyl)phenylsulfonyl)propyl) benzamide] has an IC50 [1] of 900 nM and an IC50 [2] of 2090 nM.

With `CC(C)(CNC(=O)c1ccc(Cl)cc1Cl)S(=O)(=O)c1cccc(C(F)(F)F)c1` [Compound 480, 2,4-dichloro-N-(2-methyl-2-(3-(trifluoromethyl)phenylsulfonyl)propyl) benzamide] the IC50 [1] was 720 nM and the IC50 [2] was 5440 nM.

`COc1c(C)cc(C(=O)NCC(C)(C)S(=O)(=O)c2cccc(C(F)(F)F)c2)cc1C` [Compound 481, 4-methoxy-3,5-dimethyl-N-(2-methyl-2-(3-(trifluoromethyl)phenylsulfonyl)propyl) benzamide] was tested, and the IC50 [1] was 720 nM and the IC50 [2] was > 10000 nM.

Work on `CC(C)(CNC(=O)c1ccc(F)c(Cl)c1)S(=O)(=O)c1cccc(C(F)(F)F)c1` [Compound 482, 3-chloro-4-fluoro-N-(2-methyl-2-(3-(trifluoromethyl)phenylsulfonyl)propyl) benzamide] yielded an IC50 [1] of 960 nM and an IC50 [2] of 3690 nM.

In the case of `CC(C)(CNC(=O)c1ccc(OCC(F)(F)F)nc1)S(=O)(=O)c1cccc(C(F)(F)F)c1` [Compound 483, N-(2-methyl-2-(3-(trifluoromethyl)phenylsulfonyl)propyl)-6-(2,2,2-trifluoroethoxy) nicotinamide], the IC50 [1] is reported as 900 nM and the IC50 [2] is reported as 3850 nM.

`CC(C)(C)c1cc(C(=O)NCC(C)(C)S(=O)(=O)c2cccc(C(F)(F)F)c2)ccn1` [Compound 484, 2-tert-butyl-N-(2-methyl-2-(3-(trifluoromethyl)phenylsulfonyl)propyl) isonicotinamide] showed an IC50 [1] of 530 nM and an IC50 [2] of 6690 nM.

Compound `CC(C)(CC(=O)Nc1ccc(Oc2ccc(F)cc2)cc1)S(=O)(=O)c1cccc(C(F)(F)F)c1` [Compound 486, N-(4-(4-fluorophenoxy)phenyl)-3-methyl-3-(3-(trifluoromethyl)phenylsulfonyl)butanamide] has an IC50 [1] of 510 nM and an IC50 [2] of 860 nM.

For `CC(C)(C(=O)Nc1ccc(Oc2ccccc2)cc1)S(=O)(=O)c1cccc(C(F)(F)F)c1` [Compound 487, 2-methyl-N-(4-phenoxyphenyl)-2-(3-(trifluoromethyl)phenylsulfonyl)propanamide], the IC50 [1] was 210 nM and the IC50 [2] was 3310 nM.

`CC(C)(C(=O)Nc1ccc(Oc2ccc(F)cc2)cc1)S(=O)(=O)c1cccc(C(F)(F)F)c1` [Compound 488, N-(4-(4-fluorophenoxy)phenyl)-2-methyl-2-(3-(trifluoromethyl)phenylsulfonyl)propanamide] was tested, and the IC50 [1] was 290 nM and the IC50 [2] was 2880 nM.

`CC(C)(CNS(=O)(=O)c1cccc2nsnc12)S(=O)(=O)c1cccc(C(F)(F)F)c1` [Compound 490] was tested, and the IC50 [1] was 460 nM and the IC50 [2] was > 10000 nM.

With `CC(C)(CNS(=O)(=O)c1cccc2cccnc12)S(=O)(=O)c1cccc(C(F)(F)F)c1` [Compound 491, N-(2-methyl-2-(3-(trifluoromethyl)phenylsulfonyl)propyl)quinoline-8-sulfonamide] the IC50 [1] was 470 nM and the IC50 [2] was > 10000 nM.

`CC(C)(CNS(=O)(=O)c1ccc2c(c1)NC(=O)CO2)S(=O)(=O)c1cccc(C(F)(F)F)c1` [Compound 492, N-(2-methyl-2-(3-(trifluoromethyl)phenylsulfonyl)propyl)-3-oxo-3,4-dihydro-2H-benzo[b][1,4]oxazine-6-sulfonamide] was tested, and the IC50 [1] was 590 nM and the IC50 [2] was 9260 nM.

For `CC(C)(CNS(=O)(=O)c1ccccc1C(F)(F)F)S(=O)(=O)c1cccc(C(F)(F)F)c1` [Compound 494, N-(2-methyl-2-(3-(trifluoromethyl)phenylsulfonyl)propyl)-2-(trifluoromethyl) benzenesulfonamide], the IC50 [1] was 400 nM and the IC50 [2] was 3530 nM.

In the case of `CC(C)(CNS(=O)(=O)c1cccc(C(F)(F)F)c1)S(=O)(=O)c1cccc(C(F)(F)F)c1` [Compound 495, N-(2-methyl-2-(3-(trifluoromethyl)phenylsulfonyl)propyl)-3-(trifluoromethyl) benzenesulfonamide], the IC50 [1] is reported as 190 nM and the IC50 [2] is reported as 2050 nM.

For `CC(C)(CNS(=O)(=O)c1ccc(OC(F)(F)F)cc1)S(=O)(=O)c1cccc(C(F)(F)F)c1` [Compound 496, N-(2-methyl-2-(3-(trifluoromethyl)phenylsulfonyl)propyl)-4-(trifluoromethoxy) benzenesulfonamide], the IC50 [1] was 170 nM and the IC50 [2] was 350 nM.

`CC(C)(CNS(=O)(=O)c1ccc(C(F)(F)F)cc1Cl)S(=O)(=O)c1cccc(C(F)(F)F)c1` [Compound 498, 2-chloro-N-(2-methyl-2-(3-(trifluoromethyl)phenylsulfonyl)propyl)-4-(trifluoromethyl) benzenesulfonamide] showed an IC50 [1] of 260 nM and an IC50 [2] of 1380 nM.

With `CC(C)(C)c1ccc(S(=O)(=O)NCC(C)(C)S(=O)(=O)c2cccc(C(F)(F)F)c2)cc1` [Compound 499, 4-tert-butyl-N-(2-methyl-2-(3-(trifluoromethyl)phenylsulfonyl)propyl) benzenesulfonamide] the IC50 [1] was 90 nM and the IC50 [2] was 1010 nM.

`CC(C)(CNS(=O)(=O)c1ccc2c(c1)OCO2)S(=O)(=O)c1cccc(C(F)(F)F)c1` [Compound 500, N-(2-methyl-2-(3-(trifluoromethyl)phenylsulfonyl)propyl)benzo[d] [1,3]dioxole-5-sulfonamide] was tested, and the IC50 [1] was 340 nM and the IC50 [2] was 3110 nM.

With `CC(C)(CNS(=O)(=O)c1ccc2ncsc2c1)S(=O)(=O)c1cccc(C(F)(F)F)c1` [Compound 501, N-(2-methyl-2-(3-(trifluoromethyl)phenylsulfonyl)propyl)benzo [d]thiazole-6-sulfonamide] the IC50 [1] was 420 nM and the IC50 [2] was > 10000 nM.

Work on `CC(C)(C)Oc1ccc(CNC(=O)C(C)(C)S(=O)(=O)c2cccc(C(F)(F)F)c2)cc1` [Compound 502, N-(4-tert-butoxybenzyl)-2-methyl-2-(3-(trifluoromethyl)phenylsulfonyl)propanamide] yielded an IC50 [1] of 360 nM and an IC50 [2] of 3060 nM.

Compound `CC(C)(C(=O)Nc1ccc(Oc2ccc(F)cc2)nc1)S(=O)(=O)c1cccc(C(F)(F)F)c1` [Compound 503, N-(6-(4-fluorophenoxy)pyridin-3-yl)-2-methyl-2-(3-(trifluoromethyl)phenylsulfonyl)propanamide] has an IC50 [1] of 190 nM and an IC50 [2] of 2810 nM.

Work on `CC(C)(CNC(=O)c1cn2ccc(C(F)(F)F)cc2n1)S(=O)(=O)c1cccc(C(F)(F)F)c1` [Compound 505, N-(2-methyl-2-(3-(trifluoromethyl)phenylsulfonyl)propyl)-7-(trifluoromethyl)imidazo[1,2-a]pyridine-2-carboxamide] yielded an IC50 [1] of 610 nM and an IC50 [2] of 9930 nM.

`CC(C)(CCNC(=O)c1ccc(Oc2ccc(Cl)cc2)cc1)S(=O)(=O)c1cccc(C(F)(F)F)c1` [Compound 506, 4-(4-chlorophenoxy)-N-(3-methyl-3-(3-(trifluoromethyl)phenylsulfonyl)butyl) benzamide] gave an IC50 [1] of 290 nM and an IC50 [2] of 640 nM.

Work on `CC(C)(CCNC(=O)c1cn2ccc(C(F)(F)F)cc2n1)S(=O)(=O)c1cccc(C(F)(F)F)c1` [Compound 507, N-(3-methyl-3-(3-(trifluoromethyl)phenylsulfonyl)butyl)-7-(trifluoromethyl)imidazo[1,2-a]pyridine-2-carboxamide] yielded an IC50 [1] of 380 nM and an IC50 [2] of 8300 nM.

With `CN(CCC(C)(C)S(=O)(=O)c1cccc(C(F)(F)F)c1)C(=O)c1ccc(F)c(C(F)(F)F)c1` [Compound 510, 4-fluoro-N-methyl-N-(3-methyl-3-(3-(trifluoromethyl)phenylsulfonyl)butyl)-3-(trifluoromethyl)benzamide] the IC50 [1] was 170 nM and the IC50 [2] was 5870 nM.

For `COc1cc(C(=O)N(C)CCC(C)(C)S(=O)(=O)c2cccc(C(F)(F)F)c2)cc(Cl)n1` [Compound 512, 2-chloro-6-methoxy-N-methyl-N-(3-methyl-3-(3-(trifluoromethyl)phenylsulfonyl)butyl) isonicotinamide], the IC50 [1] was 330 nM and the IC50 [2] was > 10000 nM.
